Reference: US20150359802A1, “PARENTERAL PHARMACEUTICAL FORM WHICH RELEASES AROMATSE INHIBITOR AND GESTAGENS, FOR THE TREATMENT OF ENDOMETRIOSIS” (Bayer Intellectual Property GmbH, priority 2010, published 2015)
Entries after “also recorded” stand apart in the source; their conditions may differ. Read-outs that look alike come from different tables or passages of the source.

Assays:
[1] = tested on: ovulation; details: cited from earlier work
[2] = cited from earlier work
[3] = tested on: plasma protein; test: Plasma protein binding by equilibrium dialysis, human plasma; assay type: in vitro ADME; details: seven hours at 37° C.
[4] = as above; assay type: in vitro ADME; details: human, plasma, seven hours at 37° C., read-out: Plasma protein binding [free fraction, fu]
[5] = tested on: ovarian stimulation; details: applied orally; cited from earlier work
[6] = tested on: ovary; test: IVR study in cynomolgus monkeys: ultrasound scans of the ovary; assay type: in vivo, cynomolgus monkey; details: for Ovarian cysts (ultrasound): cycle days 1-26
From the text: (§1) This comprises, among other things, cycle length, hormone receptors, morphology, endocrine system and regulation of the pituitary-ovarian axis (Borghi, M. R., R. Niesvisky, et al. (1983). “Administration of agonistic and antagonistic analogues of LH-RH induce anovulation in Macaca fasicularis.” Contraception 27(6): 619-626. Satoru Oneda, T. I., Katsumi Hamana (1996). “Ovarian Response to Exogenous Gonadotropins in Infant Cynomolgus Monkeys” International Journal of Toxicology, 15(3): 194-204). The pharmacodynamic and pharmacokinetic effect of intravaginally administered dosages of the aromatase inhibitor anastrozole was studied over the duration of a menstrual cycle by inserting a vaginal ring (IVR) having three different release rates. Among other things, the influence on the pituitary-ovarian axis was studied by determining the hormones estradiol, FSH, progesterone (the blood collections required for this were carried out over the entire experimental period; on day 1, four collections [0 h, 1 h, 3 h, 6 h after insertion of the IVR]; 1 collection each on days 2 and 3; after this time point, further collections followed on every 3rd day) and by ultrasound scans of the ovary (2× per week). Hormone determination was carried out according to the instructions provided by the supplier (estradiol [Siemens/DPC], progesterone [Beckmann-Culter/DSL], FSH [SHG]). An IVR having an initial in vitro release of 0 μg/day (placebo, no anastrozole), 390 μg/day, 85 μg/day or 27 μg/day was inserted into five animals per group one to three days after the last day of menstruation. Animals having irregular cycles were excluded from the experiment.

[7] = in vivo; details: female, cynomolgus monkey, plasma, iv, 0.2 mg/kg
[8] = Estimation of IVR release rate and serum level for human application
Description: Subsequently, an estimation was made of the in vitro IVR release rate of an IVR for human application, which is necessary to achieve serum levels which led to a lowering of estradiol in the monkeys. […] The corresponding effective serum concentration in humans is estimated to be 9 μg/l, taking into account species-specific plasma protein binding, according to equation (1) below.
The mean in vivo release rate from the IVR which is necessary to achieve a plasma concentration of 9 μg/l in humans is calculated according to equation 2. For this equation, the plasma clearance of anastrozole in humans is required.

[9] = tested on: systemic estrogen levels; details: 1 mg/day, post-menopausal women; cited from earlier work
[10] = tested on: pituitary-ovarian axis; test: IVR study in cynomolgus monkeys: estradiol, FSH and progesterone levels; assay type: in vivo, cynomolgus monkey
From the text: as §1

[11] = Plasma concentration of anastrozole after IVR administration and PK-based in vivo release; design: species or system female cynomolgus monkeys; details: in vitro release in buffer vs calculated in vivo release, primate experiment
Description: The concentration of anastrozole in plasma samples was quantitatively determined by means of liquid-liquid extraction with liquid chromatography coupled to tandem mass spectrometry (LC/ESI-MS/MS). The analyses were carried out on an Agilent 1200 and an AB Sciex Triple Quad 5500 in positive ionization mode. For this purpose, 100 μl were initially taken from each plasma sample, admixed with 300 μl of an aqueous solution containing any non-structurally-related compound as internal standard, and extracted with 1.3 ml of methyl tert-butyl ether on a Perkin Elmer Mass Prep Station. […] 5 μl of this were injected into the LC/MS/MS, the m/z transition 294 ([M+H]+)→225 was recorded, and the signal was integrated with the AB Sciex Software Analyst 1.5. The concentrations of the plasma samples were determined from the resulting areas with the aid of a calibration curve present in the same sequence (0, 0.0500 to 1000 nM in plasma, n=2). […]
The mean plasma concentration (Css) of anastrozole was calculated as the mean value of all measured concentrations per dose group from the day after insertion of the IVR up to the end of the experiment.
The mean in vivo release rates (Rin) from the IVR were subsequently calculated according to the equation: Rin=Css*CL (see table X). […]

[12] = tested on: plasma protein; test: Plasma protein binding by equilibrium dialysis, cynomolgus monkey plasma; assay type: in vitro ADME; details: seven hours at 37° C.
[13] = as above; assay type: in vitro ADME; details: cynomolgus monkey, plasma, seven hours at 37° C., read-out: Plasma protein binding [free fraction, fu]
[14] = IVR 27 μg/day initial in vitro release
[15] = IVR 85 μg/day initial in vitro release
[16] = IVR 390 μg/day initial in vitro release

For `C#C[C@]1(OC(C)=O)CC[C@H]2[C@@H]3CCC4=CC(=NO)CC[C@@H]4[C@H]3CC[C@@]21CC` (mixture of isomers) [Norgestimate], the Ovulation inhibition dose ([1]; Neumann et al) is listed as 200 μg/day p.o and the Ovulation inhibition dose ([1]; Taubert & Kuhl) is listed as 200 μg/day p.o.
In the case of `C#C[C@]1(O)CC[C@H]2[C@@H]3CCC4=CC(=O)CC[C@@H]4[C@H]3C(=C)C[C@@]21CC` [3-Keto-Desogestrel], the Ovulation inhibition dose ([1]; Taubert & Kuhl) is listed as 60 μg/day p.o.
In the case of `CC(C)(C#N)c1cc(Cn2cncn2)cc(C(C)(C)C#N)c1` [Anastrozole, anastrozole], the “CLpl (CL/F)” value ([2]; Human, oral administration) is given as 0.33 mL/min/kg, the “oral bioavailability (F)” value ([2]; humans) is given as “approximately 1” and the “Plasma protein binding [free fraction, fu]” value [3] is given as 52%. For the same compound, the fraction unbound at 7 h [4] was 0.34, the “oral dosage at which ovarian stimulation can occur” value [5] was 1 mg and the “Ovarian cysts (ultrasound)” value [6, 14] was “None”. The “Ovarian cysts (ultrasound)” value [6, 15] was “None”, the “Ovarian cysts (ultrasound)” value [6, 16] was “None” and the “formation of ovarian cysts” value ([6]; at the dosages used (27, 85, 390 μg/day)) was “no formation of ovarian cysts”. For the same compound, the clearance [7] was 9.67 mL/min/kg, the “initial in vitro release rate, for humans” value ([8]; […]) was “about 350 μg per day” and the “Calculated initial in vitro IVR release rate (in buffer) with a decreasing release rate” value ([8]; decrease 32% in 4 weeks, human dose) was “≈350 μg/day/60 kg patient”. For the same compound, the “corresponding effective serum concentration in humans” value ([8]; from monkey Css 5.9 μg/l, corrected for species-specific plasma protein binding) was 9 µg/L, the “constant in vitro release rate in buffer, for humans” value ([8]; in vitro/in vivo correction factor 1.1) was 270 µg/day and the “human in vivo release rate, kept constant” value ([8]; to achieve levels that lowered estradiol in the monkeys) was 246 µg/day. For the same compound, the “Calculated constant in vitro IVR release rate (in buffer)” value ([8]; to maintain in humans plasma levels of the effective dose in cynomolgus monkeys) was “≈270 μg/day/60 kg patient”, the “Calculated constant in vivo IVR release rate in humans” value ([8]; to maintain plasma levels of the effective dose in cynomolgus monkeys) was “≈250 μg/day/60 kg patient” and the “reduction of systemic estrogen levels” value [9] was “more than 85%”. For the same compound, the “estradiol levels during the follicular phase compared to the placebo group” value ([10]; 390 μg per day initial release, P value <0.0478) was “lowers the estradiol levels significantly; also recorded: significant fall during the follicular phase”, the “E2 AUC (cycle days 1-26)” value [10, 14] was 4862 ± 1986 pmol/L and the “E2 AUC (follicular, cycle days 1-17)” value [10, 14] was 3854 ± 927.5 pmol/L/day. The “E2 AUC (luteal, cycle days 17-26)” value [10, 14] was 403.2 ± 169.7 pmol/L, the “FSH Mean level/day without preovulatory maximum” value [10, 14] was 5.52 ± 3.07 µg/L and the “Progesterone Mean level/day Follicular phase” value [10, 14] was 5.57 ± 5.11 nmol/L. For the same compound, the “Progesterone Mean level/day Luteal phase” value [10, 14] was 91.92 ± 52.78 nmol/L, the “E2 AUC (cycle days 1-26)” value [10, 15] was 4126 ± 2063 pmol/L and the “E2 AUC (follicular, cycle days 1-17)” value [10, 15] was 3235 ± 1101 pmol/L/day. For the same compound, the “E2 AUC (luteal, cycle days 17-26)” value [10, 15] was 605.1 ± 264.1 pmol/L, the “FSH Mean level/day without preovulatory maximum” value [10, 15] was 4.90 ± 2.58 µg/L and the “Progesterone Mean level/day Follicular phase” value [10, 15] was 6.58 ± 3.91 nmol/L. For the same compound, the “Progesterone Mean level/day Luteal phase” value [10, 15] was 60.02 ± 22.65 nmol/L, the “E2 AUC (cycle days 1-26)” value [10, 16] was 2784 ± 999.8 pmol/L and the “E2 AUC (follicular, cycle days 1-17)” value [10, 16] was 1978 ± 350.6 pmol/L/day. For the same compound, the “E2 AUC (luteal, cycle days 17-26)” value [10, 16] was 342.9 ± 135.2 pmol/L, the “FSH Mean level/day without preovulatory maximum” value [10, 16] was 4.83 ± 2.91 µg/L and the “Progesterone Mean level/day Follicular phase” value [10, 16] was 4.58 ± 2.64 nmol/L. For the same compound, the “Progesterone Mean level/day Luteal phase” value [10, 16] was 92.88 ± 55.50 nmol/L, the “counterregulation by the pituitary-ovarian axis” value ([10]; at the dosages used (27, 85, 390 μg/day), compared to placebo) was “fails to occur” and the “in vitro/in vivo correction factor” value [11] was 1.1. The “Plasma protein binding [free fraction, fu]” value [12] was 34% and the fraction unbound at 7 h [13] was 0.52.
In the case of `CC(=O)O[C@]1(C(C)=O)CC[C@H]2[C@@H]3C=C(Cl)C4=CC(=O)CC[C@]4(C)[C@H]3CC[C@@]21C` [Chlormanidone acetate], the Ovulation inhibition dose ([1]; Neumann et al) is listed as 1500-2000 μg/day p.o and the Ovulation inhibition dose ([1]; Taubert & Kuhl) is listed as 1700 μg/day p.o.
In the case of `CC(=O)O[C@]1(C(C)=O)CC[C@H]2[C@@H]3C=C(Cl)C4=CC(=O)[C@@H]5C[C@@H]5[C@]4(C)[C@H]3CC[C@@]21C` [Cyproterone acetate], the Ovulation inhibition dose ([1]; Neumann et al) is given as 1000 μg/day p.o and the Ovulation inhibition dose ([1]; Taubert & Kuhl) is given as 1000 μg/day p.o.
In the case of `C#C[C@]1(O)CC[C@H]2[C@@H]3CCC4=CCCC[C@@H]4[C@H]3C(=C)C[C@@]21CC` [Desogestrel], the Ovulation inhibition dose ([1]; Neumann et al) is listed as 60 μg/day p.o and the Ovulation inhibition dose ([1]; Taubert & Kuhl) is listed as 60 μg/day p.o.
In the case of `C[C@]12CCC3=C4CCC(=O)C=C4CC[C@H]3[C@@H]1CC[C@@]2(O)CC#N` [Dienogest], the Ovulation inhibition dose ([1]; Neumann et al) is listed as 1000 μg/day p.o.
In the case of `C[C@]12CCC(=O)C=C1[C@@H]1C[C@@H]1[C@H]1[C@@H]3[C@@H]4C[C@@H]4[C@@]4(CCC(=O)O4)[C@@]3(C)CC[C@@H]12` [Drospirenone], the Ovulation inhibition dose ([1]; Neumann et al) is listed as 2000 μg/day p.o.
For `C#C[C@]1(O)C=C[C@H]2[C@@H]3CCC4=CC(=O)CC[C@@H]4[C@H]3CC[C@@]21CC` [Gestodene], the Ovulation inhibition dose ([1]; Neumann et al) is given as 30 μg/day p.o and the Ovulation inhibition dose ([1]; Taubert & Kuhl) is given as 30 μg/day p.o.
In the case of `N#Cc1ccc(C(c2ccc(C#N)cc2)n2cncn2)cc1` [Letrozole, letrozole], the “oral dosage at which ovarian stimulation can occur” value [5] is given as 2.5 mg.
In the case of `C#C[C@]1(O)CC[C@H]2[C@@H]3CCC4=CCCC[C@@H]4[C@H]3CC[C@@]21C` [Lynestrenol], the Ovulation inhibition dose ([1]; Neumann et al) is listed as 2000 μg/day p.o and the Ovulation inhibition dose ([1]; Taubert & Kuhl) is listed as 2000 μg/day p.o.
In the case of `CC(=O)O[C@]1(C(C)=O)CC[C@H]2[C@@H]3C[C@H](C)C4=CC(=O)CC[C@]4(C)[C@H]3CC[C@@]21C` [Medroxyprogesterone acetate], the Ovulation inhibition dose ([1]; Neumann et al) is listed as 10 μg/day p.o.
For `C#C[C@]1(OC(C)=O)CC[C@H]2[C@@H]3CCC4=CC(=O)CC[C@@H]4[C@H]3CC[C@@]21C` [Norethisterone acetate], the Ovulation inhibition dose ([1]; Neumann et al) is listed as 500 μg/day p.o.
In the case of `C#C[C@]1(O)CC[C@H]2[C@@H]3CCC4=CC(=O)CC[C@@H]4[C@H]3CC[C@@]21C` [Norethisterone], the Ovulation inhibition dose ([1]; Neumann et al) is listed as 500 μg/day p.o and the Ovulation inhibition dose ([1]; Taubert & Kuhl) is listed as 400 μg/day p.o.
